Consider 11 substances from patent US20220289816A1, “IMMUNOTHERAPY WITH B*07 RESTRICTED PEPTIDES AND COMBINATION OF PEPTIDES AGAINST CANCERS AND RELATED METHODS” (Immatics Biotechnologies GmbH, priority 2018, published 2022).

The test system of one assay is CD8+ T cells. As to the kind of experiment: In vitro immunogenicity: in vitro T-cell priming assay with aAPCs loaded with peptide/MHC complexes and anti-CD28 antibody, pMHC multimer readout. It counts as cell-based, human. To be noted: Table 10b, pMHC multimer readout after priming of CD8+ T cells. The source says:
In order to obtain information regarding the immunogenicity of the TUMAPs of the present invention, the inventors performed investigations using an in vitro T-cell priming assay based on repeated stimulations of CD8+ T cells with artificial antigen presenting cells (aAPCs) loaded with peptide/MHC complexes and anti-CD28 antibody.
In order to perform in vitro stimulations by artificial antigen presenting cells loaded with peptide-MHC complex (pMHC) and anti-CD28 antibody, the inventors first isolated CD8+ T cells from fresh HLA-B*07 leukapheresis products via positive selection using CD8 microbeads (Miltenyi Biotec, Bergisch-Gladbach, Germany) of healthy donors obtained from the University clinics Mannheim, Germany, after informed consent.
PBMCs and isolated CD8+ lymphocytes were incubated in T-cell medium (TCM) until use consisting of RPMI-Glutamax (Invitrogen, Karlsruhe, Germany) supplemented with 10% heat inactivated human AB serum (PAN-Biotech, Aidenbach, Germany), 100 U/ml Penicillin/100 μg/ml Streptomycin (Cambrex, Cologne, Germany), 1 mM sodium pyruvate (CC Pro, Oberdorla, Germany), 20 μg/ml Gentamycin (Cambrex). 2.5 ng/ml IL-7 (PromoCell, Heidelberg, Germany) and 10 U/ml IL-2 (Novartis Pharma, Nürnberg, Germany) were also added to the TCM at this step.
Generation of pMHC/anti-CD28 coated beads, T-cell stimulations and readout was performed in a highly defined in vitro system using four different pMHC molecules per stimulation condition and 8 different pMHC molecules per readout condition.
The purified co-stimulatory mouse IgG2a anti human CD28 Ab 9.3 (Jung et al., 1987) was chemically biotinylated using Sulfo-N-hydroxysuccinimidobiotin as recommended by the manufacturer (Perbio, Bonn, Germany). Beads used were 5.6 μm diameter streptavidin coated polystyrene particles (Bangs Laboratories, Illinois, USA).
800.000 beads/200 μl were coated in 96-well plates in the presence of 4×12.5 ng different biotin-pMHC, washed and 600 ng biotin anti-CD28 were added subsequently in a volume of 200 μl. Stimulations were initiated in 96-well plates by co-incubating 1×10^6 CD8+ T cells with 2×10^5 washed coated beads in 200 μl TCM supplemented with 5 ng/ml IL-12 (PromoCell) for 3 days at 37° C. Half of the medium was then exchanged by fresh TCM supplemented with 80 U/ml IL-2 and incubating was continued for four days at 37° C. This stimulation cycle was performed for a total of three times. For the pMHC multimer readout using 8 different pMHC molecules per condition, a two-dimensional combinatorial coding approach was used as previously described (Andersen et al., 2012) with minor modifications encompassing coupling to five different fluorochromes. Finally, multimeric analyses were performed by staining the cells with Live/dead near IR dye (Invitrogen, Karlsruhe, Germany), CD8-FITC antibody clone SK1 (BD, Heidelberg, Germany) and fluorescent pMHC multimers. For analysis, a BD LSRII SORP cytometer equipped with appropriate lasers and filters was used. Peptide specific cells were calculated as percentage of total CD8+ cells. Evaluation of multimeric analysis was done using the FlowJo software (Tree Star, Oregon, USA). In vitro priming of specific multimer+CD8+ lymphocytes was detected by comparing to negative control stimulations.

Another assay deals with HLA-B*07 (Homo sapiens, UniProt P01889). As to the kind of experiment: MHC binding assay (UV-ligand exchange, ELISA of stabilized MHC complexes). To be noted: peptide exchange yield on HLA-B*07, UV-ligand exchange. Summed up: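 Peptide–MHC complexes were made by UV-ligand exchange, in which a UV-cleavable peptide is replaced by the test peptide. Exchange yield was measured by ELISA of stabilized complexes on streptavidin-coated plates, using HRP anti-β2m detection (1 h, 37 °C), TMB substrate and absorbance at 450 nm.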
In general terms: An ELISA detects its analyte on a solid surface through an enzyme-linked reagent.

As to “51 (SPVFYVQTL; listed as Homo sapiens) [compound 51]”, the “Wells positive [%]” value with CD8+ T cells is reported as “+ (<20% = +)”. Moreover, in the assay with HLA-B*07, the Peptide exchange result is recorded as “++++ (>75% = ++++)”.

“53 (SPRIPFSTF; listed as Homo sapiens) [compound 53]”: in the assay on CD8+ T cells, the “Wells positive [%]” value is recorded as “+ (<20% = +)”. Also, in the assay with HLA-B*07, the Peptide exchange result was “++++ (>75% = ++++)”.

In the case of “56 (LPALLRSGLTL; listed as Homo sapiens) [compound 56]”, the “Wells positive [%]” value in the assay on CD8+ T cells is recorded as “+++ (50%-69% = +++)”. Besides, the Peptide exchange result with HLA-B*07 is on record as “++++ (>75% = ++++)”.

Regarding “59 (KPRTIYSSL; listed as Homo sapiens) [compound 59]”, the “Wells positive [%]” value with CD8+ T cells is “+ (<20% = +)”. The Peptide exchange entry with HLA-B*07 was “++++ (>75% = ++++)”.

For “61 (LPRIPFSTF; listed as Homo sapiens) [compound 61]”, the “Wells positive [%]” value in the assay on CD8+ T cells is on record as “++ (20%-49% = ++)”. For the same substance, in the assay with HLA-B*07, the Peptide exchange result was “++++ (>75% = ++++)”.

Turning to “64 (VPRPIFSQLYL; listed as Homo sapiens) [compound 64]”, the “Wells positive [%]” value with CD8+ T cells is listed as “+++ (50%-69% = +++)”. For the same substance, the Peptide exchange entry with HLA-B*07 is “++++ (>75% = ++++)”.

In the case of “68 (FPNEVSVVL; listed as Homo sapiens) [compound 68]”, the “Wells positive [%]” value in the assay on CD8+ T cells is recorded as “++ (20%-49% = ++)”. Also, in the assay with HLA-B*07, the Peptide exchange entry is given as “++++ (>75% = ++++)”.

Regarding “361 (SPYGSDRLVQL; listed as Homo sapiens) [compound 361]”, the “Wells positive [%]” value with CD8+ T cells is “+ (<20% = +)”. Moreover, the Peptide exchange result with HLA-B*07 was “++++ (>75% = ++++)”.

In the case of “364 (KPRTPFTTAQL; listed as Homo sapiens) [compound 364]”, in the assay on CD8+ T cells, the “Wells positive [%]” value is listed as “+ (<20% = +)”. The Peptide exchange entry with HLA-B*07 is recorded as “++++ (>75% = ++++)”.

Consider “365 (RPKHFLQML; listed as Homo sapiens) [compound 365]”, for which the “Wells positive [%]” value in the assay with CD8+ T cells was “+ (<20% = +)”. Besides, in the assay with HLA-B*07, the Peptide exchange entry is on record as “++++ (>75% = ++++)”.

For the substance “366 (SPTLRQLDL; listed as Homo sapiens) [compound 366]”, the “Wells positive [%]” value in the assay with CD8+ T cells is recorded as “++ (20%-49% = ++)”. For the same substance, the Peptide exchange entry in the assay with HLA-B*07 was “++++ (>75% = ++++)”.
